Assay results taken from PubChem BioAssay (NCI).
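Method: 48-hour compound exposure of cells in 96-well plates, five concentrations, linear interpolation of endpoints. At the GI50, growth is halved. TGI denotes the concentration required for complete inhibition of growth.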

Key:
Assay in all cases: NCI-60 cell line screen, 48 h
MDA-MB-435 = system: MDA-MB-435
MDA-MB-468 breast = system: MDA-MB-468 breast
OVCAR-5 ovarian = system: OVCAR-5 ovarian
ACHN renal = system: ACHN renal
CCRF-CEM leukemia = system: CCRF-CEM leukemia
HT29 colon = system: HT29 colon
SR leukemia = system: SR leukemia
OVCAR-8 ovarian = system: OVCAR-8 ovarian
K-562 leukemia = system: K-562 leukemia
UO-31 renal = system: UO-31 renal
HCT-116 colon = system: HCT-116 colon
A549 NSCLC = system: A549 NSCLC
OVCAR-4 ovarian = system: OVCAR-4 ovarian
HCT-15 colon = system: HCT-15 colon
MDA-MB-231 breast = system: MDA-MB-231 breast
TK-10 renal = system: TK-10 renal
T-47D breast = system: T-47D breast
SF-539 CNS = system: SF-539 CNS
PC-3 prostate = system: PC-3 prostate
SF-295 CNS = system: SF-295 CNS
SK-MEL-28 melanoma = system: SK-MEL-28 melanoma
MALME-3M melanoma = system: MALME-3M melanoma
COLO 205 colon = system: COLO 205 colon
UACC-62 melanoma = system: UACC-62 melanoma
NCI-H522 lung = system: NCI-H522 lung
BT-549 breast = system: BT-549 breast
786-0 renal = system: 786-0 renal
HOP-92 NSCLC = system: HOP-92 NSCLC
A498 renal = system: A498 renal
IGROV1 ovarian = system: IGROV1 ovarian

Structure (SMILES): C#CCN(C)CCCOc1ccc(N(C)C(=O)c2cc(C(C)C)c(O)cc2O)cc1Cl
- GI50 (MDA-MB-435): 133 nM
- TGI (MDA-MB-435): 12400 nM
- GI50 (MDA-MB-468 breast): 96.2 nM
- TGI (MDA-MB-468 breast): 462 nM
- GI50 (OVCAR-5 ovarian): 477 nM
- TGI (OVCAR-5 ovarian): 16000 nM
- GI50 (ACHN renal): 96.3 nM
- TGI (ACHN renal): 13500 nM
- GI50 (CCRF-CEM leukemia): 62.5 nM
- TGI (CCRF-CEM leukemia): 13300 nM
- GI50 (HT29 colon): 3270 nM
- TGI (HT29 colon): 13900 nM
- GI50 (SR leukemia): 40.9 nM
- TGI (SR leukemia): 19400 nM
- GI50 (OVCAR-8 ovarian): 202 nM
- TGI (OVCAR-8 ovarian): 21000 nM
- GI50 (K-562 leukemia): 78.8 nM
- TGI (K-562 leukemia): 19400 nM
- GI50 (UO-31 renal): 148 nM
- TGI (UO-31 renal): 14200 nM
- GI50 (HCT-116 colon): 88.9 nM
- TGI (HCT-116 colon): 13300 nM
- GI50 (A549 NSCLC): 188 nM
- TGI (A549 NSCLC): 15400 nM
- GI50 (OVCAR-4 ovarian): 2010 nM
- TGI (OVCAR-4 ovarian): 22200 nM
- GI50 (HCT-15 colon): 82.7 nM
- TGI (HCT-15 colon): 12700 nM
- GI50 (MDA-MB-231 breast): 213 nM
- TGI (MDA-MB-231 breast): 10900 nM
- GI50 (TK-10 renal): 323 nM
- TGI (TK-10 renal): 16800 nM
- GI50 (T-47D breast): 85.3 nM
- TGI (T-47D breast): 13500 nM
- GI50 (SF-539 CNS): 325 nM
- TGI (SF-539 CNS): 12900 nM
- GI50 (PC-3 prostate): 161 nM
- TGI (PC-3 prostate): 16000 nM
- GI50 (SF-295 CNS): 348 nM
- TGI (SF-295 CNS): 12700 nM
- GI50 (SK-MEL-28 melanoma): 386 nM
- TGI (SK-MEL-28 melanoma): 13300 nM
- GI50 (MALME-3M melanoma): 195 nM
- TGI (MALME-3M melanoma): 2230 nM
- GI50 (COLO 205 colon): 2830 nM
- TGI (COLO 205 colon): 12500 nM
- GI50 (UACC-62 melanoma): 168 nM
- TGI (UACC-62 melanoma): 913 nM
- GI50 (NCI-H522 lung): 165 nM
- TGI (NCI-H522 lung): 14100 nM
- GI50 (BT-549 breast): 1090 nM
- TGI (BT-549 breast): 15400 nM
- GI50 (786-0 renal): 2600 nM
- TGI (786-0 renal): 18700 nM
- GI50 (HOP-92 NSCLC): 328 nM
- TGI (HOP-92 NSCLC): 3590 nM
- GI50 (A498 renal): 642 nM
- TGI (A498 renal): 16500 nM
- GI50 (IGROV1 ovarian): 172 nM
